# Target: T1, human GPR40 (Homo sapiens, UniProt O14842)
# T1 construct: expressed in transfected cells
# Experiment: Evaluation of human GPR40 agonist activity with increase in intracellular Ca2+ concentration as an index (FLIPR)
# Type: cell-based
# Conditions: test compound 1 μM; CHO(dhfr−) cells stably expressing human GPR40; 100% = 10 μM compound of Example 153, 0% = DMSO
# Method: Plasmid hGPR40/pAKKO-1.11H for mammalian cells expression, wherein cDNA fragment (SEQ ID NO: 1) encoding the full-length human GPR40 was incorporated into an expression vector pAKKO-1.11H (Biochimica et Biophysica Acta vol. 1219 pp. 251-259 (1994)), was transfected into CHO-dhfr(−) cells (ATCC, CRL-9096) by using Lipofectamine 2000 (Invitrogen:11668-019). After transfection, the limiting dilution-culture method was performed to select clone in selection medium (nucleic acid-free α-MEM (Invitrogen:12561-056)) containing 10% dialyzed bovine serum (Invitrogen:26400-044)). The expression level of human GPR40 mRNA was confirmed by TaqMan PCR (Life Technologies), and the intracellular calcium mobilization activity of GPR40 ligand (γ-linolenic acid) was confirmed by FLIPR (Molecular Devices), and a clone of human GPR40 expressing CHO cells was selected.
# Evaluation of Human GPR40 Agonist Activity with Increase in Intracellular Ca^2+ Concentration as an Index
# CHO(dhfr−) cells that stably expressed human GPR40 were suspended in MEMα (Nikken Bio Medical Laboratory) containing 10% dialyzed bovine serum (JR Scientific), 10 mM HEPES (Life Technologies), 100 U/mL penicillin, 100 μg/mL streptomycin (Life Technologies), and plated on a 384 well black/clear cell culture plate at 10,000 cells/well. After culture overnight in a CO2 incubator at 37° C., the culture supernatant was removed, and loading buffer [Ca^2+ probe attached to Calcium Kit II-iCellux (DOJINDO) was dissolved in assay buffer (20 mM HEPES, 0.1% fatty acid-free BSA (Sigma-Aldrich), 2.5 mM probenecid (DOJINDO)-containing HESS (Life Technologies))] was added at 30 μL/well. After leaving for 1 hr at room temperature under light shielding, assay buffer containing the test compound at a final concentration of 1 μM was added at 10 μL/well in FLIPR Tetra (Molecular Devices), and the fluorescence amount was successively measured. Human GPR40 agonist activity calculated using an increase in the intracellular Ca^2+ concentration as an index, wherein the activity of 10 μM of the compound of Example 153 was 100%, and the activity when DMSO was added instead of the test compound was 0%.
# T1 sequence (O14842 whole entry): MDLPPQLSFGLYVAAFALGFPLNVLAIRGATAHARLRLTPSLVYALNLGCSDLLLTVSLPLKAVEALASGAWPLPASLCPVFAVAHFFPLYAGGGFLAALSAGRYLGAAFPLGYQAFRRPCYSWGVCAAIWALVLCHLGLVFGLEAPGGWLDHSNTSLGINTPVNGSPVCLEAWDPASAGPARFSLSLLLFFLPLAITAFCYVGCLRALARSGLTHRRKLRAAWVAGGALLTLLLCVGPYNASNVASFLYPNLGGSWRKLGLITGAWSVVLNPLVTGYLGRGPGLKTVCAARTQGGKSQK
Compound,activation at 1 µM,Activity (human GPR40 agonist activity)
"COc1ccc(C(=O)N(CC2CC2)c2cccc(C)n2)c(N2CCC(COc3cc(C(CC(=O)O)C4CC4)ccn3)CC2)c1 (stereo not shown) [Example 124, 3-cyclopropyl-3-(2-((1-(2-((cyclopropylmethyl)(6-methylpyridin-2-yl)carbamoyl)-5-methoxyphenyl)piperidin-4-yl)methoxy)pyridin-4-yl)propanoic acid]",96%,–
"COc1ccc(C(=O)N(CC(C)(C)C)c2cc(C)ncn2)c(N2CCC(COc3cc(C(CC(=O)O)C4CC4)ccn3)CC2)c1 (stereo not shown) [Example 230, 3-cyclopropyl-3-(2-((1-(2-((2,2-dimethylpropyl) (6-methylpyrimidin-4-yl)carbamoyl)-5-methoxyphenyl)piperidin-4-yl)methoxy)pyridin-4-yl)propanoic acid]",98%,–
"COc1cc(N2CCC(COc3cc(C(CC(=O)O)C4CC4)ccn3)CC2)c(C(=O)N(CC2CC2)c2cc(C)cc(C)n2)cn1 (stereo not shown) [Example 285, 3-cyclopropyl-3-(2-((1-(5-((cyclopropylmethyl) (4,6-dimethylpyridin-2-yl)carbamoyl)-2-methoxypyridin-4-yl)piperidin-4-yl)methoxy)pyridin-4-yl)propanoic acid]",99%,–
"COc1ccc(C(=O)NCC(F)(F)C(F)(F)F)c(N2CCC(COc3cc(C(CC(=O)O)C4CC4)ccn3)CC2)c1 (stereo not shown) [Example 129, 3-cyclopropyl-3-(2-((1-(5-methoxy-2-((2,2,3,3,3-pentafluoropropyl)carbamoyl)phenyl)piperidin-4-yl)methoxy)pyridin-4-yl)propanoic acid]",81%,–
"COc1ccc(C(=O)N(CC(C)(C)C)c2nccc(C)n2)c(N2CCC(COc3cc(C(CC(=O)O)C4CC4)ccn3)CC2)c1 (stereo not shown) [Example 173, 3-cyclopropyl-3-(2-((1-(2-((2,2-dimethylpropyl)(4-methylpyrimidin-2-yl)carbamoyl)-5-methoxyphenyl)piperidin-4-yl)methoxy)pyridin-4-yl)propanoic acid]",103%,–
"COc1ccc(C(=O)N(CC2CC2)c2ccccn2)c(N2CCC(COc3cc(C(CC(=O)O)C4CC4)ccn3)CC2)c1 (single isomer, unassigned) [Example 142, 3-cyclopropyl-3-(2-((1-(2-((cyclopropylmethyl)(pyridin-2-yl)carbamoyl)-5-methoxyphenyl)piperidin-4-yl)methoxy)pyridin-4-yl)propanoic acid]",–,97%
"COc1ccc(C(=O)N(CC(F)F)c2cc(C)ccn2)c(N2CCC(COc3cc(C(CC(=O)O)C4CC4)ccn3)CC2)c1 (stereo not shown) [Example 157, 3-cyclopropyl-3-(2-((1-(2-((2,2-difluoroethyl)(4-methylpyridin-2-yl)carbamoyl)-5-methoxyphenyl)piperidin-4-yl)methoxy)pyridin-4-yl)propanoic acid]",96%,–
"COc1ccc(C(=O)N(CC(C)(C)C)c2cccc(C)n2)c(N2CCC(COc3cccc(C4(CC(=O)O)COC4)c3)CC2)c1 [Example 278, (3-(3-((1-(2-((2,2-dimethylpropyl) (6-methylpyridin-2-yl)carbamoyl)-5-methoxyphenyl)piperidin-4-yl)methoxy)phenyl)oxetan-3-yl)acetic acid]",78%,–
"COc1ccc(C(=O)N(CC2(F)CC2)c2ccccn2)c(N2CCC(COc3cc(C(CC(=O)O)C4CC4)ccn3)CC2)c1 (stereo not shown) [Example 144, 3-cyclopropyl-3-(2-((1-(2-(((1-fluorocyclopropyl)methyl)(pyridin-2-yl)carbamoyl)-5-methoxyphenyl)piperidin-4-yl)methoxy)pyridin-4-yl)propanoic acid]",79%,–
"COc1ccc(C(=O)N(Cc2ccccc2)c2ccccn2)c(N2CCC(COc3cc(C(CC(=O)O)C4CC4)ccn3)CC2)c1 (stereo not shown) [Example 197, 3-(2-((1-(2-(benzyl(pyridin-2-yl)carbamoyl)-5-methoxyphenyl)piperidin-4-yl)methoxy)pyridin-4-yl)-3-cyclopropylpropanoic acid]",103%,–
"COc1ccc(C(=O)N(CC(C)(C)C)c2cc(C)cc(C)n2)c(N2CCC(COc3cc(C(CC(=O)O)C4CC4)ccn3)CC2)c1 (stereo not shown) [Example 243, 3-cyclopropyl-3-(2-((1-(2-((2,2-dimethylpropyl)(4,6-dimethylpyridin-2-yl)carbamoyl)-5-methoxyphenyl)piperidin-4-yl)methoxy)pyridin-4-yl)propanoic acid]",101%,–
"COc1ccc(C(=O)N(CCC#N)c2ccccc2)c(N2CCC(COc3cccc(C(CC(=O)O)C4CC4)c3)CC2)c1 (stereo not shown) [Example 6, 3-(3-((1-(2-((2-cyanoethyl)(phenyl)carbamoyl)-5-methoxyphenyl)piperidin-4-yl)methoxy)phenyl)-3-cyclopropylpropanoic acid]",73%,–
"Cc1cccc(N(CC(C)(C)C)C(=O)c2ccc(C(N)=O)cc2N2CCC(COc3cc(C(CC(=O)O)C4CC4)ccn3)CC2)n1 (stereo not shown) [Example 261, 3-(2-((1-(5-carbamoyl-2-((2,2-dimethylpropyl)(6-methylpyridin-2-yl)carbamoyl)phenyl)piperidin-4-yl)methoxy)pyridin-4-yl)-3-cyclopropylpropanoic acid]",11%,–
"COc1cc(N2CCC(COc3cc(C(CC(=O)O)C4CC4)ccn3)CC2)c(C(=O)N(CC(C)(C)C)c2cccc(C)n2)cc1F (stereo not shown) [Example 250, 3-cyclopropyl-3-(2-((1-(2-((2,2-dimethylpropyl)(6-methylpyridin-2-yl)carbamoyl)-4-fluoro-5-methoxyphenyl)piperidin-4-yl)methoxy)pyridin-4-yl)propanoic acid]",91%,–
"COc1ccc(C(=O)N(CC(C)(C)C)c2ncccn2)c(N2CCC(COc3cc(C(CC(=O)O)C4CC4)c(F)cn3)CC2)c1 (stereo not shown) [Example 273, 3-cyclopropyl-3-(2-((1-(2-((2-dimethylpropyl)-(pyrimidin-2-yl)-carbamoyl)-5-methoxy-phenyl)piperidin-4-yl)-methoxy)-5-fluoropyridin-4-yl)propanoic acid]",101%,–
"COc1ccc(C(=O)N(CC(C)(C)OCC(F)(F)F)c2ccccn2)c(N2CCC(COc3cc(C(CC(=O)O)C4CC4)ccn3)CC2)c1 (stereo not shown) [Example 161, 3-cyclopropyl-3-(2-((1-(5-methoxy-2-((2-methyl-2-(2,2,2-trifluoroethoxy)propyl)(pyridin-2-yl)carbamoyl)phenyl)piperidin-4-yl)methoxy)pyridin-4-yl)propanoic acid]",97%,–
"COc1ccc(C(=O)N(CC(C)(F)F)c2cc(C)ccn2)c(N2CCC(COc3cc(C(CC(=O)O)C4CC4)ccn3)CC2)c1 (stereo not shown) [Example 147, 3-cyclopropyl-3-(2-((1-(2-((2,2-difluoropropyl)(4-methylpyridin-2-yl)carbamoyl)-5-methoxyphenyl)piperidin-4-yl)methoxy)pyridin-4-yl)propanoic acid]",97%,–
"COc1ccc(C(=O)N(CC(C)(C)OC)c2ccccn2)c(N2CCC(COc3cc(C(CC(=O)O)C4CC4)ccn3)CC2)c1 (stereo not shown) [Example 131, 3-cyclopropyl-3-(2-((1-(5-methoxy-2-((2-methoxy-2-methylpropyl)(pyridin-2-yl)carbamoyl)phenyl)piperidin-4-yl)methoxy)pyridin-4-yl)propanoic acid]",85%,–
"COc1ccc(C(=O)N(CC(F)(F)F)c2ncccn2)c(N2CCC(COc3cc(C(CC(=O)O)C4CC4)ccn3)CC2)c1 (stereo not shown) [Example 166, 3-cyclopropyl-3-(2-((1-(5-methoxy-2-(pyrimidin-2-yl(2,2,2-trifluoroethyl)carbamoyl)phenyl)piperidin-4-yl)methoxy)pyridin-4-yl)propanoic acid]",97%,–
